Target: human FXR (NR1H4) (Homo sapiens (Human), UniProt Q96RI1)
Experiment: Human FXR (NR1H4) Assay (Gal4 promoter driven luciferase reporter, Indigo Bioscience kit);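 for Efficacy (%): 100% equals the efficacy of CDCA; efficacy normalized to CDCA set as 100%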
Type: cell-based
Settings: for EC50: Human FXR (NR1H4) Assay, potency ranges; for Emax: read-out: Efficacy (%)
In short: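 CHO reporter cells expressing human FXR with an FXR-responsive luciferase reporter, treated with compound doses at 0.2% DMSO. Incubation lasted 22 h at 37 °C before luciferase detection reagent was added. Luminescence was then read.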

Chain of human FXR (NR1H4) (Q96RI1 whole entry, the tested form may be a part): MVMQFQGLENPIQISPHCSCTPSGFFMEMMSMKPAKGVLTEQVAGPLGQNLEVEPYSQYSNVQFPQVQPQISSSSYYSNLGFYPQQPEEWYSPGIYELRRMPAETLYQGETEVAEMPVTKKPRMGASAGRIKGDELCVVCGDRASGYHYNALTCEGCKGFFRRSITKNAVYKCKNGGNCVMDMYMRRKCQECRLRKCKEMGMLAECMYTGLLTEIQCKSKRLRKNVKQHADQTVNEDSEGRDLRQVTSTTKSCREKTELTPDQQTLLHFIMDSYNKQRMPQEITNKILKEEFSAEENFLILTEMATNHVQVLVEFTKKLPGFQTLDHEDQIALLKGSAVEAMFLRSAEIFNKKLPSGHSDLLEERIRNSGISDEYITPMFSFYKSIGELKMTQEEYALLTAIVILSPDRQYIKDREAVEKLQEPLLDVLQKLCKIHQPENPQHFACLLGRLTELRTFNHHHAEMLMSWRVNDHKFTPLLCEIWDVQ

SMILES | EC50 | Emax
CC[C@H]1[C@@H](O)[C@@H]2[C@H](CC[C@]3(C)[C@@H]([C@H](C)CCOC(=O)N4CCC[C@H](CO)C4)CC[C@@H]23)[C@@]2(C)CC[C@@H](O)C[C@@H]12 [Example 203] | 100 to 1000 nM | 380%
CC[C@H]1[C@@H](O)[C@@H]2[C@H](CC[C@]3(C)[C@@H]([C@H](C)CCOC(=O)N4CCC[C@@H](CO)C4)CC[C@@H]23)[C@@]2(C)CC[C@@H](O)C[C@@H]12 [Example 204] | < 100 nM | 310%
CC[C@H]1[C@@H](O)[C@@H]2[C@H](CC[C@]3(C)[C@@H]([C@H](C)COC(=O)NCc4ccccc4)CC[C@@H]23)[C@@]2(C)CC[C@@H](O)C[C@@H]12 [Example 205] | 1000 to 10000 nM | 5%
CC[C@H]1[C@@H](O)[C@@H]2[C@H](CC[C@]3(C)[C@@H]([C@H](C)CCOC(=O)N[C@@H]4CCC[C@@H]4O)CC[C@@H]23)[C@@]2(C)CC[C@@H](O)C[C@@H]12 [Example 206] | < 100 nM | 174%
CC[C@H]1[C@@H](O)[C@@H]2[C@H](CC[C@]3(C)[C@@H]([C@H](C)CCOC(=O)N[C@@H]4CCC[C@H]4O)CC[C@@H]23)[C@@]2(C)CC[C@@H](O)C[C@@H]12 [Example 207] | 100 to 1000 nM | 188%
CC[C@H]1[C@@H](O)[C@@H]2[C@H](CC[C@]3(C)[C@@H]([C@H](C)CCOC(=O)N[C@H]4CCC[C@@H]4O)CC[C@@H]23)[C@@]2(C)CC[C@@H](O)C[C@@H]12 [Example 208] | 100 to 1000 nM | 205%
CC[C@H]1[C@@H](O)[C@@H]2[C@H](CC[C@]3(C)[C@@H]([C@H](C)CCOC(=O)N4CCC[C@@H]4CO)CC[C@@H]23)[C@@]2(C)CC[C@@H](O)C[C@@H]12 [Example 209] | < 100 nM | 199%
CC[C@H]1[C@@H](O)[C@@H]2[C@H](CC[C@]3(C)[C@@H]([C@H](C)CCOC(=O)N4CCC[C@H]4CO)CC[C@@H]23)[C@@]2(C)CC[C@@H](O)C[C@@H]12 [Example 210] | < 100 nM | 156%
CC[C@H]1[C@@H](O)[C@@H]2[C@H](CC[C@]3(C)[C@@H]([C@H](C)CCOC(=O)N4CC[C@H](CO)C4)CC[C@@H]23)[C@@]2(C)CC[C@@H](O)C[C@@H]12 [Example 211] | < 100 nM | 198%
CC[C@H]1[C@@H](O)[C@@H]2[C@H](CC[C@]3(C)[C@@H]([C@H](C)CCOC(=O)N4CC[C@@H](CO)C4)CC[C@@H]23)[C@@]2(C)CC[C@@H](O)C[C@@H]12 [Example 212] | < 100 nM | 479%
CC[C@H]1[C@@H](O)[C@@H]2[C@H](CC[C@]3(C)[C@@H]([C@H](C)CCOC(=O)N4CCC(C)(CO)CC4)CC[C@@H]23)[C@@]2(C)CC[C@@H](O)C[C@@H]12 [Example 213] | < 100 nM | 460%
CC[C@H]1[C@@H](O)[C@@H]2[C@H](CC[C@]3(C)[C@@H]([C@H](C)CCOC(=O)N4CC(CO)C4)CC[C@@H]23)[C@@]2(C)CC[C@@H](O)C[C@@H]12 [Example 214] | < 100 nM | 194%
CC[C@H]1[C@@H](O)[C@@H]2[C@H](CC[C@]3(C)[C@@H]([C@H](C)CCOC(=O)N4CC[C@@H](O)C4)CC[C@@H]23)[C@@]2(C)CC[C@@H](O)C[C@@H]12 [Example 215] | < 100 nM | 143%
CC[C@H]1[C@@H](O)[C@@H]2[C@H](CC[C@]3(C)[C@@H]([C@H](C)CCOC(=O)N[C@H]4CCC[C@H]4O)CC[C@@H]23)[C@@]2(C)CC[C@@H](O)C[C@@H]12 [Example 216] | 100 to 1000 nM | 478%
CC[C@H]1[C@@H](O)[C@@H]2[C@H](CC[C@]3(C)[C@@H]([C@H](C)CCOC(=O)N4CCC(CC)(CO)CC4)CC[C@@H]23)[C@@]2(C)CC[C@@H](O)C[C@@H]12 [Example 217] | < 100 nM | 337%
CC[C@H]1[C@@H](O)[C@@H]2[C@H](CC[C@]3(C)[C@@H]([C@H](C)CCOC(=O)N4CCC(CO)(CO)CC4)CC[C@@H]23)[C@@]2(C)CC[C@@H](O)C[C@@H]12 [Example 218] | < 100 nM | 356%
